The data set is described as follows: Solubilization in anhydrous polar solvents. In kind it is physicochemical. Particulars: 25° C. As for the experimental part: It was unexpectedly discovered that both hydroxy acids and urea can be fully solubilized in anhydrous solvent at concentrations suitable for use as a chemical peel. Illustratively, for a peeling activity in the provided compositions and systems the hydroxy acid and urea must be present at a concentration of 8-10% or greater, with much greater efficacy at 10% or greater. It was discovered that anhydrous polar solvents can fully solubilize (i.e. no observable haze at 25° C.) both hydroxy acids and urea up to concentrations of 25%, thereby allowing significant efficacy when applied to the skin. The use of anhydrous glycerin (as one example) alone or optionally with or substituted by other anhydrous polar solvents (e.g. anhydrous polar solvents such as propylene glycol, butylene glycol, dimethylisosorbide, etc.) allows for the elimination of water and the prevention of the “burn” experienced in prior systems.

The structures appear in SMILES notation.

Regarding `NC(N)=O` [urea], the “concentration fully solubilized (no observable haze)” value is listed as at most 25%.

These data come from patent US10092491B2, “Skin renewal enhancer” (priority 2015, dated 2018).
